According to ChEMBL document CHEMBL6115009:
The source made the active and inactive calls. No cut-off for these calls is given here.

Experiments:
[1] = biological target: Glutamate NMDA receptor; GRIN1/GRIN2B (Homo sapiens) (UniProt Q05586+Q13224); assay: Antagonist activity at GluN1/GluN2B receptor (unknown origin) overexpressed in CHO cells assessed as inhibition of Ca2+ flux incubated for 24 hrs in presence of glycine/L-glutamate by FLIPR assay; type: cell-based
[2] = biological target: Glutamate NMDA receptor (Rattus norvegicus) (UniProt P35439+Q00959+Q00960+Q00961+Q62645+Q8VHN2+Q9R1M7); assay: Displacement of [3H]TCP from Wistar rat cerebral cortex NMDAR at 10 uM incubated for 1.5 hrs; type: tissue-based
[3] = Selectivity index, ratio of displacement of [3H]TCP from Wistar rat cerebral cortex NMDAR to displacement of [3H]diprenorphine from recombinant human mu opioid receptor expressed in CHO-K1 cells; type: cell-based
[4] = biological target: T1, 5-hydroxytryptamine receptor 1A (Homo sapiens) (UniProt P08908); assay: Displacement of [3H]8-OH-DPAT from recombinant human 5-HT1A receptor expressed in CHO-K1 cells at 0.3 to 3 uM incubated for 1 hr; type: cell-based; settings: dose 0.3-3 µM
T1 sequence (whole entry): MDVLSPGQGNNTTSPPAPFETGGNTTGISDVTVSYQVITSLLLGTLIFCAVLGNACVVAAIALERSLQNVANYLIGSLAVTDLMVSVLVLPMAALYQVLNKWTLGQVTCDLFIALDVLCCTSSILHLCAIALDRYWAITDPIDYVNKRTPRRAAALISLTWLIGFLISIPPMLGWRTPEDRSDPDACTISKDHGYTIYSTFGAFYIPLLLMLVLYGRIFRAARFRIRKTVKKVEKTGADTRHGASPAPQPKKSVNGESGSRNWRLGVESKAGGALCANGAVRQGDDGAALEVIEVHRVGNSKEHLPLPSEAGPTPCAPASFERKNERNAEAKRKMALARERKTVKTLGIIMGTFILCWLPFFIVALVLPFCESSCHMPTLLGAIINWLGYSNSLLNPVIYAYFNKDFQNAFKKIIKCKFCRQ

[5] = biological target: Sodium-dependent serotonin transporter (Homo sapiens) (UniProt P31645); assay: Displacement of [3H]paroxetine from recombinant human SERT expressed in HEK293 cells at 10 uM incubated for 1 hr; type: cell-based
Chain of Sodium-dependent serotonin transporter (Homo sapiens) (P31645 whole entry, looked up): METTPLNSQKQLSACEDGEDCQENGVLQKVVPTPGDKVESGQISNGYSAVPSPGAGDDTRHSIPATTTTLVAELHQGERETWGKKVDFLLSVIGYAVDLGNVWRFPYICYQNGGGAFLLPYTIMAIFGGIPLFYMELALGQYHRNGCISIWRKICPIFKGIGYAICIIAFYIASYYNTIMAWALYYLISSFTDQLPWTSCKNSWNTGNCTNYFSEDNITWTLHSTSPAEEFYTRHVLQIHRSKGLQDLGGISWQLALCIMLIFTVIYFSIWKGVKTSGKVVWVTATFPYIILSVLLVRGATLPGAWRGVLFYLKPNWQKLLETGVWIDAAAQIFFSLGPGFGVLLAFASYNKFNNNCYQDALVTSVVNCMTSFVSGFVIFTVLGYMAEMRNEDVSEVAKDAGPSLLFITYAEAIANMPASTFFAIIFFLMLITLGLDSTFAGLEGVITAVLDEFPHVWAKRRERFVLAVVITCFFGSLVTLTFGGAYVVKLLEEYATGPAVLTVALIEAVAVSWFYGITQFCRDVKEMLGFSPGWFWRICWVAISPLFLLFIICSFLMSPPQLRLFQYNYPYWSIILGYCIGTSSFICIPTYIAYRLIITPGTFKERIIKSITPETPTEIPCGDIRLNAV

[6] = biological target: Ionotropic glutamate receptor NMDA 1/2D (Homo sapiens) (UniProt Q05586+O15399); assay: Antagonist activity at GluN1/GluN2D receptor (unknown origin) overexpressed in CHO cells assessed as inhibition of Ca2+ flux incubated for 24 hrs in presence of glycine/L-glutamate by FLIPR assay; type: cell-based
[7] = biological target: Ionotropic glutamate receptor NMDA 1/2C (Homo sapiens) (UniProt Q05586+Q14957); assay: Antagonist activity at GluN1/GluN2C receptor (unknown origin) overexpressed in CHO cells assessed as inhibition of Ca2+ flux incubated for 24 hrs in presence of glycine/L-glutamate by FLIPR assay; type: cell-based
[8] = biological target: Glutamate NMDA receptor; GRIN1/GRIN2A (Homo sapiens) (UniProt Q05586+Q12879); assay: Antagonist activity at GluN1/GluN2A receptor (unknown origin) overexpressed in CHO cells assessed as inhibition of Ca2+ flux incubated for 24 hrs in presence of glycine/L-glutamate by FLIPR assay; type: cell-based
[9] = biological target: Histamine H1 receptor (Homo sapiens) (UniProt P35367); assay: Displacement of [3H]pyrilamine from recombinant human histamine H1 receptor expressed in CHO-K1 cells at 10 to 30 uM incubated for 3 hrs; type: cell-based; settings: dose 10-30 µM
Chain of Histamine H1 receptor (Homo sapiens) (P35367 whole entry): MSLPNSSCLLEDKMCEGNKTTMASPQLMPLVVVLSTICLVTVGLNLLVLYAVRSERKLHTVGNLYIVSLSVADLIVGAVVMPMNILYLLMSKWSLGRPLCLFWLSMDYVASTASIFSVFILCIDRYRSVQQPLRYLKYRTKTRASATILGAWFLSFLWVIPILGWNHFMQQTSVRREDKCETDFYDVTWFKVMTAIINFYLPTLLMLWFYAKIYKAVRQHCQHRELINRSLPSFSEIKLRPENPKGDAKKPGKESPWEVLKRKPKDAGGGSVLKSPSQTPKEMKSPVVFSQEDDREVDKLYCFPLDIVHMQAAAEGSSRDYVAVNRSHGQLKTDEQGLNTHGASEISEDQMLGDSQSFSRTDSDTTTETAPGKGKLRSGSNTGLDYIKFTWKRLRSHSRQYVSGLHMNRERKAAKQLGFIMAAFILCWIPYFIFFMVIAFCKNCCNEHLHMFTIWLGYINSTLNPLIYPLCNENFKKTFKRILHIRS

[10] = biological target: Sigma non-opioid intracellular receptor 1 (Homo sapiens) (UniProt Q99720); assay: Displacement of [3H]pentazocine from sigma 1 receptor in human Jurkat cells at 0.3 to 3 uM incubated for 2 hrs; type: cell-based; settings: dose 0.3-3 µM
Chain of Sigma non-opioid intracellular receptor 1 (Homo sapiens) (Q99720 whole entry): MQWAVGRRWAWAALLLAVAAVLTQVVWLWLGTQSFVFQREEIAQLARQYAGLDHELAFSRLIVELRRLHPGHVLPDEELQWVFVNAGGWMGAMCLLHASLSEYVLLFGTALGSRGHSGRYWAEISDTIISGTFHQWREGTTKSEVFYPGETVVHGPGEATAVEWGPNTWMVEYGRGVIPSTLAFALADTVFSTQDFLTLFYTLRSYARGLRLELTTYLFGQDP

[11] = biological target: Sodium-dependent serotonin transporter (Homo sapiens) (UniProt P31645); assay: Displacement of [3H]paroxetine from recombinant human SERT expressed in HEK293 cells at 1 to 10 uM incubated for 1 hr; type: cell-based; settings: dose 1-10 µM

SMILES | inhibition [1] | Activity ([2]; filed as antagonist) | Activity [4] | inhibition [6] | inhibition [7] | inhibition [8] | further results
CC[C@H](O)C(C[C@@H](C)N(C)C)(c1ccccc1)c1ccccc1 | inactive | – | – | – | – | – | –
CC[C@@H](O)C(C[C@@H](C)NC)(c1ccccc1)c1ccccc1 | – | Active | inactive | – | – | – | Ratio pKi [3]: 0.83; Activity [5]: Active
C[C@H](CC(C(=O)O)(c1ccccc1)c1ccccc1)N(C)C | inactive | – | – | inactive | inactive | inactive | –
CC[C@H](O)C(C[C@H](C)NC)(c1ccccc1)c1ccccc1 | – | Active; Compound Activity Comparable To (S)-Methadone | inactive | – | – | – | Activity [9]: Active; Compound Displayed Significant Activity Like (S)-Methadone; Activity [10]: Active
CC[C@H](O)C(C[C@@H](C)N)(c1ccccc1)c1ccccc1 | – | Active | inactive | – | – | – | –
CCC1=[N+](C)[C@H](C)CC1(c1ccccc1)c1ccccc1 | inactive | – | – | – | – | inactive | –
CC[C@H](O)C(C[C@H](C)N)(c1ccccc1)c1ccccc1 | – | Active | inactive | – | – | – | Activity [11]: Active
C[C@@H]1CC(c2ccccc2)(c2ccccc2)C(=O)N1C | inactive | – | – | inactive | inactive | inactive | –
CCC1=[N+](C)[C@@H](C)CC1(c1ccccc1)c1ccccc1 | inactive | – | – | inactive | inactive | inactive | –
C[C@@H](CC(C(=O)O)(c1ccccc1)c1ccccc1)N(C)C | inactive | – | – | inactive | inactive | inactive | –
CC[C@@H](O)C(C[C@H](C)N)(c1ccccc1)c1ccccc1 | – | Active; Compound Activity Comparable To (S)-Methadone | inactive | – | – | – | Activity [11]: Active
C[C@H]1CC(c2ccccc2)(c2ccccc2)C(=O)N1C | inactive | – | – | inactive | inactive | inactive | –
CC[C@H](O)C(C[C@@H](C)NC)(c1ccccc1)c1ccccc1 | – | Active | inactive | – | – | – | Ratio pKi [3]: 0.98; Activity [5]: Active
CC[C@@H](O)C(C[C@H](C)N(C)C)(c1ccccc1)c1ccccc1 | inactive | – | – | inactive | inactive | – | –
CCC1=N[C@H](C)CC1(c1ccccc1)c1ccccc1 | – | – | inactive | – | – | – | Activity [2]: inactive
CCC(=O)C(C[C@H](C)N(C)C)(c1ccccc1)c1ccccc1 | – | Active | Active | – | – | – | –
